Results reported in paper PMC6957347 (Pharmacology Research & Perspectives, 2020).

Columns and labels:
PI3Kβ/α = assay: pAKT in PC3 cell line; type: cell-based
rheumatoid arthritis = conditions: 0.5-5 mg, twice a day, PO ref 27; cited from earlier work
[1] = test system: human B and T cell cocultures; conditions: BioMAP T:B cocultures ref 10; cited from earlier work

IC50 (PI3Kβ/α) | Structure (SMILES) | efficacy in rheumatoid arthritis clinical trials (rheumatoid arthritis) | IgG production [1]
[…] | C[C@H](Nc1ncnc2nc[nH]c12)c1cc2cccc(Cl)c2c(=O)n1-c1ccccc1 [duvelisib] | efficacy could not be demonstrated | 
 | [O-][n+]1cccc(-c2nc3c(Cl)cccc3cc2[C@@H](Nc2ncnc3cccnc23)C(F)(F)F)c1 [seletalisib] |  | attenuation of IgG production
